In patent US20120191039A1, “CARRIER LINKED PRAMIPEXOLE PRODRUGS” (ASCENDIS PHARMA A/S, priority 2009, published 2012):
Read-outs that look alike come from different tables or passages of the source. Values belong to the compound of their own block, whether it stands above or below them.

How the values were obtained:
[1] = Release kinetics in vitro: hydrolysis in buffer at pH 7.4 and 37° C.; assay type: physicochemical; details: sodium phosphate buffer; half time of release, 60 mM sodium phosphate, 3 mM EDTA, 0.01% Tween20, pH 7.4, 37° C.; read-out: t1/2 buffer A (pH 7.4) (converted)
Protocol: In vitro release sample was vortexed and centrifuged. An aliquot was taken from the supernatant, diluted with eluent (20 mM phosphate buffer pH 7.4, 150 mM NaCl) and assayed for pramipexole content by SEC as described above.
Release of drug molecule was effected by hydrolysis in buffer at pH 7.4 and 37° C.
9a, 9b, 9c, 9d, 9e, 11b, 20, 21, 22b, 23, 24b, 33, and 35 respectively, were dissolved in buffer (60 mM sodium phosphate, 3 mM EDTA, 0.01% Tween20, pH 7.4), solution was filtered through a 0.2 μm filter and incubated at 37° C. Samples were taken at time intervals and analyzed by RP-HPLC at 263 nm and 280 nm and ESI-MS. UV-signals correlating to linker conjugate molecules were integrated and plotted against incubation time. Curve-fitting software was applied to estimate the corresponding half time of release
16a, 16b, 26, 30, and 31 respectively, were suspended in buffer (60 mM sodium phosphate, 3 mM EDTA, 0.01% Tween20, pH 7.4) and incubated at 37° C. At time intervals samples were vortexed and centrifuged. Aliquots (10-50 μL) were taken from the supernatant solution, and analyzed by measurement of the absorption of released drug at 263 nm. Calculated amounts of released drug were plotted against incubation time. Alternatively, amount of released pramipexole was determined by size exclusion chromatography as described in “Materials and Methods”.
Curve-fitting software was applied to estimate the corresponding half time of release.

[2] = cited from earlier work

- half-life [1]: 28.8 h
SMILES: CCCN[C@H]1CCc2nc(NC(=O)CCC(=O)NCCSC3CC(=O)N(CCC(=O)NCCOCCOCCOCCOCCOCCOCCC(=O)NCC(N)=O)C3=O)sc2C1 (some centres unmarked) [Compound 9a]

- half-life [1]: 88.8 h
SMILES: CCCN[C@H]1CCc2nc(NC(=O)CCC(=O)NCCCCCCSC3CC(=O)N(CCC(=O)NCCOCCOCCOCCOCCOCCOCCC(=O)NCC(N)=O)C3=O)sc2C1 (some centres unmarked) [Compound 9b]

- half-life [1]: 31.2 h
SMILES: CCCN[C@H]1CCc2nc(NC(=O)COCC(=O)NCCCCCCSC3CC(=O)N(CCC(=O)NCCOCCOCCOCCOCCOCCOCCC(=O)NCC(N)=O)C3=O)sc2C1 (some centres unmarked) [Compound 9c]

- half-life [1]: 26.4 h
SMILES: CCCN[C@H]1CCc2nc(NC(=O)CNCC(=O)NCCCCCCSC3CC(=O)N(CCC(=O)NCCOCCOCCOCCOCCOCCOCCC(=O)NCC(N)=O)C3=O)sc2C1 (some centres unmarked) [Compound 9d]

- half-life [1]: 103 h
SMILES: CCCN[C@H]1CCc2nc(NC(=O)CNC(=O)NCCCCCCSC3CC(=O)N(CCC(=O)NCCOCCOCCOCCOCCOCCOCCC(=O)NCC(N)=O)C3=O)sc2C1 (some centres unmarked) [Compound 9e]

SMILES: CCCN[C@H]1CCc2nc(N)sc2C1 [Pramipexole]
- elimination half life ([2]; healthy subjects): 8 h
- excretion ([2]; in vivo): mainly renal
- metabolism ([2]; in vivo): negligible metabolism
- protein bound ([2]; in vivo): Fifteen
- volume of distribution ([2]; in vivo): 7 L/kg
- absorption ([2]; oral administration): rapidly and completely absorbed
- time to maximum plasma concentration ([2]; oral, empty stomach): 1 to 2 h
- time to maximum plasma concentration ([2]; oral, with food): 3 to 4 h
- Oral bioavailability ([2]; oral): over 90%
